Data taken from ChEMBL document CHEMBL4477188, “Callyazepin and (3R)-Methylazacyclodecane, Nitrogenous Macrocycles from a Callyspongia sp. Sponge” (J Nat Prod, 2016).

Key:
[1] = test system: Bacillus spizizenii; assay: Antimicrobial activity against Bacillus subtilis ATCC 6633 after 24 hrs by serial two fold dilution method; type: functional; settings: ATCC 6633, 24 h
[2] = test system: Salmonella typhimurium; assay: Antimicrobial activity against Salmonella typhimurium ATCC 14028 after 24 hrs by serial two fold dilution method; type: functional, Salmonella enterica subsp. enterica serovar Typhimurium; settings: Salmonella enterica, ATCC 14028, 24 h
[3] = test system: A549; assay: Cytotoxicity against human A549 cells assessed as reduction in cell viability after 72 hrs by MTT assay; type: functional, cell-based; settings: A549, 72 h
[4] = test system: K562; assay: Cytotoxicity against human K562 cells assessed as reduction in cell viability after 72 hrs by MTT assay; type: functional, cell-based; settings: K562, 72 h
[5] = test system: Micrococcus luteus; assay: Antimicrobial activity against Micrococcus luteus IFC 12708 after 24 hrs by serial two fold dilution method; type: functional; settings: IFC 12708, 24 h
[6] = test system: Staphylococcus aureus; assay: Antimicrobial activity against Staphylococcus aureus ATCC 6538P after 24 hrs by serial two fold dilution method; type: functional
[7] = test system: Escherichia coli; assay: Antimicrobial activity against Escherichia coli ATCC 25922 after 24 hrs by serial two fold dilution method; type: functional; settings: ATCC 25922, 24 h
[8] = test system: Proteus vulgaris; assay: Antimicrobial activity against Proteus vulgaris ATCC 3851 after 24 hrs by serial two fold dilution method; type: functional; settings: ATCC 3851, 24 h

Row | Compound | MIC [1] | MIC [2] | IC50 [3] | IC50 [4] | MIC [5] | MIC [6] | MIC [7] | MIC [8]
1 | COC(=O)[C@H](C)[N@@+]1(C=O)CC[C@H]2CCCCCCCCCC[C@H]2[C@@H](C)C1 | ≥ 128 µM | ≥ 128 µM | 3 µM | 7.4 µM | ≥ 128 µM | ≥ 128 µM | ≥ 128 µM | ≥ 128 µM
2 | COc1cccc2c1C(=O)c1c(O)c3c(c(O)c1C2=O)C[C@@](O)(C(=O)CO)C[C@@H]3O[C@H]1C[C@H](N)[C@H](O)[C@H](C)O1 [DOXORUBICIN] | – | – | 0.5 µM | 0.8 µM | – | – | – | –
3 | C[C@@H]1CCCCCCCNC1 | ≥ 128 µM | ≥ 128 µM | 3.8 µM | 3.2 µM | ≥ 128 µM | ≥ 128 µM | ≥ 128 µM | ≥ 128 µM
